This series concerns rodent carcinogenicity bioassays, tumor incidence. The series can be described thus: CCRIS carcinogenicity studies. A digest of the protocol:
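Archive of carcinogenicity, mutagenicity, tumor promotion and tumor inhibition results drawn from journals, NCI reports and other sources, expert-reviewed; covers 1985-2011 and is no longer updated.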

Activity calls are given as the source filed them. How the calls were made is not given here.

Take `CCOc1ccc(NC(C)=O)cc1[N+](=O)[O-]`: the carcinogen call was “inactive; negative” (Species: MOUSE, Strain/Sex: B6C3F1/FEMALE, Route: ORAL, Dose: 0, 0.73, 1.46% OF DIET, TWA, Dose: 0, 0.73, 1.46% OF DIET, TWA); “active; positive” (Species: MOUSE, Strain/Sex: B6C3F1/MALE, Route: ORAL, Dose: 0, 0.73, 1.46% OF DIET, TWA, Dose: 0, 0.73, 1.46% OF DIET, TWA, Tumor Site: Type of Lesion: LIVER: HEPATOCELLULAR CARCINOMA OR ADENOMA); “inactive; negative” (Species: RAT, Strain/Sex: F344/FEMALE, Route: ORAL, Dose: 0, 0.18, 0.36% OF DIET, TWA, Dose: 0, 0.18, 0.36% OF DIET, TWA); “inactive; negative” (Species: RAT, Strain/Sex: F344/MALE, Route: ORAL, Dose: 0, 0.18, 0.36% OF DIET, TWA, Dose: 0, 0.18, 0.36% OF DIET, TWA).
As to `O=NN1CCCCCCC1`, the carcinogen call is “active; positive” (Species: HAMSTER, Strain/Sex: EUROPEAN/FEMALE, Route: SUBCUTANEOUS, Dose: 11, 22, 44 MG/KG 3/WK, Dose: 11, 22, 44 MG/KG 3/WK, Tumor Site: Type of Lesion: LUNG: ADENOCARCINOMA, SQUAMOUS CELL CARCINOMA, NASAL CAVITY: SQUAMOUS CELL CARCINOMA); “active; positive” (Species: HAMSTER, Strain/Sex: EUROPEAN/MALE, Route: SUBCUTANEOUS, Dose: 16.5, 33, 66 MG/KG 3/WK, Dose: 16.5, 33, 66 MG/KG 3/WK, Tumor Site: Type of Lesion: LUNG: ADENOCARCINOMA, SQUAMOUS CELL CARCINOMA, NASAL CAVITY: SQUAMOUS CELL CARCINOMA); “active; positive” (Species: HAMSTER, Strain/Sex: SYRIAN/MALE, Route: ORAL, Dose: 50, 200 MG/L 5 NIGHT/WK FOR 50 WK IN DRINKING WATER, Tumor Site: Type of Lesion: NASAL CAVITY, LARYNX, PHARYNX, TRACHEA, ESOPHAGUS, FORESTOMACH, Tumor Site: Type of Lesion: NASAL CAVITY, LARYNX, PHARYNX, TRACHEA, ESOPHAGUS, FORESTOMACH); “inactive; negative” (Species: RAT, Strain/Sex: LISTER/FEMALE, Route: SUBCUTANEOUS, Dose: 0, 1 MG 1/WK FOR 10 WK (STUDY DURATION: 104 WK)); “active; positive” (Species: RAT, Strain/Sex: MRC/MALE,FEMALE, Route: ORAL, Dose: 100 MG/L 5 D/WK FOR 30 WK IN DRINKING WATER, Tumor Site: Type of Lesion: ESOPHAGUS, TRACHEA: SQUAMOUS CELL PAPILLOMA, LUNG: SQUAMOUS CELL CARCINOMA, Tumor Site: Type of Lesion: ESOPHAGUS, TRACHEA: SQUAMOUS CELL PAPILLOMA, LUNG: SQUAMOUS CELL CARCINOMA).
Turning to `Cc1cccc2c1cc(C)c1c3c(ccc12)C(O)C(O)C1OC31` (configuration not stated), the carcinogen call reads like this: (Species: MOUSE, Strain/Sex: ICR/FEMALE, Route: INTRAPERITONEAL, Dose: 0, 8 NMOL IN 5 µL DMSO TO PUPS ON D 1/OF LIFE THEN 16 NMOL IN 10 µL ON D 8 AND 3 NMOL IN 20 µL ON D 15 (STUDY DURATION:, Tumor Site: Type of Lesion: LUNG: TUMOR) “active; positive”; (Species: MOUSE, Strain/Sex: ICR/MALE, Route: INTRAPERITONEAL, Dose: 0, 8 NMOL IN 5 µL DMSO TO PUPS ON D 1/OF LIFE THEN 16 NMOL IN 10 µL ON D 8 AND 3 NMOL IN 20 µL ON D 15 (STUDY DURATION:, Tumor Site: Type of Lesion: LUNG: TUMOR, LIVER: TUMOR) “active; positive”.
On to `CC/C(=C(\c1ccc(O)cc1)c1ccc(OCCN(C)C)cc1)c1ccccc1`, for which, where the note is “Species: RAT, Strain/Sex: SPRAGUE-DAWLEY/FEMALE, Route: DERMAL, Dose: 0, 20, 140, 1000 UG/KG/D FOR 101 WK (STUDY DURATION: 101 WK), Dose: 0, 20, 140, 1000 UG/KG/D FOR 101 WK (STUDY DURATION: 101 WK)”, the carcinogen call was “inactive; negative”.
With `O=[N+]([O-])c1cccc2c1-c1cccc3c([N+](=O)[O-])ccc-2c13`, the carcinogen call reads like this: (Species: RAT, Strain/Sex: F344/DUCRJ/MALE, Route: PULMONARY IMPLANT, Dose: 0, 0.2 MG AS A SUSPENSION IN EQUAL VOL OF BEESWAX AND TRICAPRYLIN IMPLANTED IN LEFT LUNG (STUDY DURATION: 70 WK), Tumor Site: Type of Lesion: LUNG: TUMOR) “active; positive”; (Species: RAT, Strain/Sex: F344/MALE, Route: LUNG IMPLANT, Dose: 0, 200 UG IN BEESWAX/TRICAPRYLIN INTO LOWER LEFT LUNG ONCE (STUDY DURATION: 100 WK), Tumor Site: Type of Lesion: LUNG: SQUAMOUS CELL CARCINOMA) “active; positive”; (Species: RAT, Strain/Sex: F344/MALE, Route: PULMONARY IMPLANT, Dose: 0, 200 UG IN 50 µL BEESWAX/TRICAPRYLIN IMPLANTED FOR UP TO 100 WK (STUDY DURATION: 100 WK), Tumor Site: Type of Lesion: LUNG: TUMOR) “active; positive”.
`COc1ccc(C(=O)Nc2c(Cl)cncc2Cl)cc1OC1CCCC1`: the carcinogen call by setting is: (Species: RAT, Strain/Sex: SPRAGUE-DAWLEY/FEMALE, Route: INHALATION, Dose: 0, 0.125, 0.5, 1.0 MG/KG BW/D 1 HR/D IN A DRY-POWDER FORMULATION WITH LACTOSE VEHICLE USING A NOSE-ONLY AEROSOL EXPOSURE, Dose: 0, 0.125, 0.5, 1.0 MG/KG BW/D 1 HR/D IN A DRY-POWDER FORMULATION WITH LACTOSE VEHICLE USING A NOSE-ONLY AEROSOL EXPOSURE, Tumor Site: Type of Lesion: NASAL OLFACTORY REGION: TUMORS) “active; positive”; (Species: RAT, Strain/Sex: SPRAGUE-DAWLEY/MALE, Route: INHALATION, Dose: 0, 0.125, 0.5, 1.0 MG/KG BW/D 1 HR/D IN A DRY-POWDER FORMULATION WITH LACTOSE VEHICLE USING A NOSE-ONLY AEROSOL EXPOSURE, Dose: 0, 0.125, 0.5, 1.0 MG/KG BW/D 1 HR/D IN A DRY-POWDER FORMULATION WITH LACTOSE VEHICLE USING A NOSE-ONLY AEROSOL EXPOSURE, Tumor Site: Type of Lesion: NASAL OLFACTORY REGION: TUMORS) “active; positive”.
Turning to `CCCCOC(=O)[C@@H](C)Oc1ccc(Oc2ccc(C#N)cc2F)cc1`, the carcinogen call is “inactive; negative” (Species: Mouse, Strain/Sex: ICR (Crj:CD-1)/(Male (52/group), Route: Oral, Dose: 0, 3, 10, 100 ppm (0; 0.31; 0.99; 10.1 mg/kg/day) of 97.1% pure cyhalofop-butyl in diet for 78 wk, Dose: 0, 3, 10, 100 ppm (0; 0.31; 0.99; 10.1 mg/kg/day) of 97.1% pure cyhalofop-butyl in diet for 78 wk) and “inactive; negative” (Species: Mouse, Strain/Sex: ICR (Crj:CD-1)/Female (52/group), Route: Oral, Dose: 0, 3, 10, 100 ppm (0; 0.29; 0.99; 10.3 mg/kg/day) of 97.1% pure cyhalofop-butyl in diet for 78 wk, Dose: 0, 3, 10, 100 ppm (0; 0.29; 0.99; 10.3 mg/kg/day) of 97.1% pure cyhalofop-butyl in diet for 78 wk).
For the compound `COC(=O)c1ccc(C(=O)OC)cc1`, the carcinogen call runs as follows: (Species: MOUSE, Strain/Sex: B6C3F1/FEMALE, Route: ORAL, Dose: 0, 2500, 5000 PPM IN DIET FOR 103 WK (STUDY DURATION: 104-105 WK), Dose: 0, 2500, 5000 PPM IN DIET FOR 103 WK (STUDY DURATION: 104-105 WK)) “inactive; negative”; (Species: MOUSE, Strain/Sex: B6C3F1/MALE, Route: ORAL, Dose: 0, 2500, 5000 PPM IN DIET FOR 103 WK (STUDY DURATION: 104-105 WK), Dose: 0, 2500, 5000 PPM IN DIET FOR 103 WK (STUDY DURATION: 104-105 WK), Tumor Site: Type of Lesion: LUNG: ALVEOLAR/BRONCHIOLAR ADENOMA OR CARCINOMA) “equivocal”; (Species: RAT, Strain/Sex: F344/FEMALE, Route: ORAL, Dose: 0, 2500, 5000 PPM IN DIET FOR 103 WK (STUDY DURATION: 105-106 WK), Dose: 0, 2500, 5000 PPM IN DIET FOR 103 WK (STUDY DURATION: 105-106 WK)) “inactive; negative”; (Species: RAT, Strain/Sex: F344/MALE, Route: ORAL, Dose: 0, 2500, 5000 PPM IN DIET FOR 103 WK (STUDY DURATION: 105-106 WK), Dose: 0, 2500, 5000 PPM IN DIET FOR 103 WK (STUDY DURATION: 105-106 WK)) “inactive; negative”.
`OCc1ccccc1`: the carcinogen call (Species: MOUSE, Strain/Sex: B6C3F1/F, Route: GAVAGE, Dose: 0, 100, 200 MG/KG IN CORN OIL 5D/WK FOR 103 WK (STUDY DURATION: 106 WK), Dose: 0, 100, 200 MG/KG IN CORN OIL 5D/WK FOR 103 WK (STUDY DURATION: 106 WK)) was “inactive; negative”; the carcinogen call (Species: MOUSE, Strain/Sex: B6C3F1/M, Route: GAVAGE, Dose: 0, 100, 200 MG/KG IN CORN OIL 5D/WK FOR 103 WK (STUDY DURATION: 106 WK), Dose: 0, 100, 200 MG/KG IN CORN OIL 5D/WK FOR 103 WK (STUDY DURATION: 106 WK)) is “inactive; negative”; the carcinogen call (Species: RAT, Strain/Sex: F344/F, Route: GAVAGE, Dose: 0, 200, 400 MG/KG IN CORN OIL 5D/WK FOR 103 WK (STUDY DURATION: 105 WK), Dose: 0, 200, 400 MG/KG IN CORN OIL 5D/WK FOR 103 WK (STUDY DURATION: 105 WK)) is “inactive; negative”; the carcinogen call (Species: RAT, Strain/Sex: F344/M, Route: GAVAGE, Dose: 0, 200, 400 MG/KG IN CORN OIL 5D/WK FOR 103 WK (STUDY DURATION: 105 WK), Dose: 0, 200, 400 MG/KG IN CORN OIL 5D/WK FOR 103 WK (STUDY DURATION: 105 WK)) was “inactive; negative”.

Source of the values: PubChem BioAssay AID1259411 (Chemical Carcinogenesis Research Information System (CCRIS), 2018).
